Experimental findings from patent US20110319411A1, “ISOINDOLINONE AND RELATED ANALOGS AS SIRTUIN MODULATORS” (Sirtis Pharmaceuticals, Inc., priority 2008, published 2011) are described below.

For the assay, the target named is T1, SIRT1 (Homo sapiens, UniProt Q96EB6).
T1 construct: made in house; host or cells: E. coli BL21(DE3)
T1 sequence (Q96EB6 1-747): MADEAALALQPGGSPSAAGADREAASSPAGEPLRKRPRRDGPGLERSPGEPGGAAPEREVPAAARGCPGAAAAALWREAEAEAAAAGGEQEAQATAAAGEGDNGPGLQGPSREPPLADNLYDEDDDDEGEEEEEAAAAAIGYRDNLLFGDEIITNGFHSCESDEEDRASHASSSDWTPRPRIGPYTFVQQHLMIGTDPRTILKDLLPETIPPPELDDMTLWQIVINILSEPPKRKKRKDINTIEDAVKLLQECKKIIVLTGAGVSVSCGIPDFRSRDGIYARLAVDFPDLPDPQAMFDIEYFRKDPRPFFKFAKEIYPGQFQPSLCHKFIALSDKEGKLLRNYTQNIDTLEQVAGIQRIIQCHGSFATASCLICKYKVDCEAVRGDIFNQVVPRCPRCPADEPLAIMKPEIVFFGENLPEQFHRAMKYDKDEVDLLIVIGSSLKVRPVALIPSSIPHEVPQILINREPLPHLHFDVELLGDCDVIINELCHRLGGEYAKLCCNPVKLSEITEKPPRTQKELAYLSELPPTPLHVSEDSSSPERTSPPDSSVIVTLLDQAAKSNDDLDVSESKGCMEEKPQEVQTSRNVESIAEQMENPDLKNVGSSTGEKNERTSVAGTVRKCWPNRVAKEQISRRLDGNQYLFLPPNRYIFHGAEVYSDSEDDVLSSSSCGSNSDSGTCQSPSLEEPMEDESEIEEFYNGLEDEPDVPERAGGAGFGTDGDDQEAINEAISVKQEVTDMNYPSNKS
In words: mass spectrometry based assay to identify modulators of SIRT1 activity. It is filed as biochemical. The note with it: 10 nM SIRT1, 0.5 μM peptide substrate, 120 μM βNAD+, 25 minutes at 25° C.; for Emax: 25 min, read-out: % FOLD ACT. (percent maximum fold activation). The source says:
A mass spectrometry based assay was used to identify modulators of SIRT1 activity. The mass spectrometry based assay utilizes a peptide having 20 amino acid residues as follows: Ac-EE-K(biotin)-GQSTSSHSK(Ac)NleSTEG-K(5TMR)-EE-NH2 (SEQ ID NO: 1) wherein K(Ac) is an acetylated lysine residue and Nle is a norleucine. The peptide is labeled with the fluorophore 5TMR (excitation 540 nm/emission 580 nm) at the C-terminus. The sequence of the peptide substrate is based on p53 with several modifications. In addition, the methionine residue naturally present in the sequence was replaced with the norleucine because the methionine may be susceptible to oxidation during synthesis and purification.
The mass spectrometry assay is conducted as follows: 0.5 μM peptide substrate and 120 μM βNAD^+ is incubated with 10 nM SIRT1 for 25 minutes at 25° C. in a reaction buffer (50 mM Tris-acetate pH 8, 137 mM NaCl, 2.7 mM KCl, 1 mM MgCl2, 5 mM DTT, 0.05% BSA). Test compounds may be added to the reaction as described above. The SirT1 gene is cloned into a T7-promoter containing vector and transformed into BL21(DE3). After the 25 minute incubation with SIRT1, 10 μL of 10% formic acid is added to stop the reaction. Reactions are sealed and frozen for later mass spec analysis. Determination of the mass of the substrate peptide allows for precise determination of the degree of acetylation (i.e. starting material) as compared to deacetylated peptide (product).
A control for inhibition of sirtuin activity is conducted by adding 1 μL of 500 mM nicotinamide as a negative control at the start of the reaction (e.g., permits determination of maximum sirtuin inhibition). A control for activation of sirtuin activity is conducted using 10 nM of sirtuin protein, with 1 μL of DMSO in place of compound, to determine the amount of deacetylation of the substrate at a given timepoint within the linear range of the assay. This timepoint is the same as that used for test compounds and, within the linear range, the endpoint represents a change in velocity.
For the above assay, SIRT1 protein was expressed and purified as follows. The SirT1 gene was cloned into a T7-promoter containing vector and transformed into BL21(DE3). The protein was expressed by induction with 1 mM IPTG as an N-terminal His-tag fusion protein at 18° C. overnight and harvested at 30,000×g. Cells were lysed with lysozyme in lysis buffer (50 mM Tris-HCl, 2 mM Tris[2-carboxyethyl]phosphine (TCEP), 10 μM ZnCl2, 200 mM NaCl) and further treated with sonication for 10 min for complete lysis. The protein was purified over a Ni-NTA column (Amersham) and fractions containing pure protein were pooled, concentrated and run over a sizing column (Sephadex S200 26/60 global). The peak containing soluble protein was collected and run on an Ion-exchange column (MonoQ). Gradient elution (200 mM-500 mM NaCl) yielded pure protein. This protein was concentrated and dialyzed against dialysis buffer (20 mM Tris-HCl, 2 mM TCEP) overnight. The protein was aliquoted and frozen at −80° C. until further use.
Sirtuin modulating compounds that activated SIRT1 were identified using the assay described above and are shown below in Table 1. The EC1.5 values represent the concentration of test compounds that result in 150% activation of SIRT1. The EC1.5 values for the activating compounds are represented by A (EC1.5<10 μM), B (EC1-5 10-25 μM), C (EC1.5>25 μM). The percent maximum fold activation is represented by A (Fold activation >200%) or B (Fold Activation <200%).

Take `O=C(Nc1cccc2c1C(=O)N(c1cccc(C(F)(F)F)c1)C2)c1cnccn1` [Compound 100, N-(3-oxo-2-(3-(trifluoromethyl)phenyl)isoindolin-4-yl)pyrazine-2-carboxamide]: the “EC1.5 (concentration of test compound that results in 150% activation of SIRT1)” value is listed as “A (EC1.5<10 μM)” and the Emax is less than 200%.
On to `O=C(Cc1cccnc1)Nc1cccc2c1C(=O)N(c1cccc(C(F)(F)F)c1)C2` [Compound 101], for which the “EC1.5 (concentration of test compound that results in 150% activation of SIRT1)” value is recorded as “C (EC1.5>25 μM)” and the Emax is less than 200%.
For the molecule `O=C(Cc1cccnc1)Nc1cccc2c1C(=O)N(c1cccc(OC3CCNCC3)c1)C2` [Compound 102, N-(3-oxo-2-(3-(piperidin-4-yloxy)phenyl)isoindolin-4-yl)-2-(pyridin-3-yl)acetamide], the “EC1.5 (concentration of test compound that results in 150% activation of SIRT1)” value is recorded as “C (EC1.5>25 μM)” and the Emax was less than 200%.
`O=C(Cc1cccnc1)Nc1cccc2c1C(=O)N(c1cccc(O[C@@H]3CCNC3)c1)C2` [Compound 103]: the “EC1.5 (concentration of test compound that results in 150% activation of SIRT1)” value is “B (EC1-5 10-25 μM)” and the Emax is less than 200%.
For the molecule `O=C(Cc1cccnc1)Nc1cccc2c1C(=O)N(c1cccc(-c3ccncc3)c1)C2` [Compound 104], the “EC1.5 (concentration of test compound that results in 150% activation of SIRT1)” value is on record as “C (EC1.5>25 μM)” and the Emax is less than 200%.
Regarding `CC1(C(=O)Nc2cccc3c2C(=O)N(c2cccc(C(F)(F)F)c2)C3)CCCCC1` [Compound 105], the “EC1.5 (concentration of test compound that results in 150% activation of SIRT1)” value is “C (EC1.5>25 μM)” and the Emax was less than 200%.
The matching figures for `CC(C)(C(=O)Nc1cccc2c1C(=O)N(c1cccc(C(F)(F)F)c1)C2)c1ccccc1` [Compound 106]: “C (EC1.5>25 μM)” and less than 200%.
Turning to `O=C(Cc1cccnc1)Nc1cccc2c1C(=O)N(c1cccc(OC(F)(F)F)c1)C2` [Compound 107], the “EC1.5 (concentration of test compound that results in 150% activation of SIRT1)” value is on record as “C (EC1.5>25 μM)” and the Emax is less than 200%.
The matching figures for `O=C(Nc1cccc2c1C(=O)N(c1cccc(OC(F)(F)F)c1)C2)C1CCCC1` [Compound 108]: “C (EC1.5>25 μM)” and less than 200%.
Regarding `O=C(Cc1ccccc1F)Nc1cccc2c1C(=O)N(c1cccc(C(F)(F)F)c1)C2` [Compound 109], the “EC1.5 (concentration of test compound that results in 150% activation of SIRT1)” value is on record as “C (EC1.5>25 μM)” and the Emax was less than 200%.
On to `O=C(Cc1cccc(F)c1)Nc1cccc2c1C(=O)N(c1cccc(C(F)(F)F)c1)C2` [Compound 110], for which the “EC1.5 (concentration of test compound that results in 150% activation of SIRT1)” value is given as “C (EC1.5>25 μM)” and the Emax is less than 200%.
For `O=C(Nc1cccc2c1C(=O)N(c1cccc(C(F)(F)F)c1)C2)C1CCOCC1` [Compound 111], the “EC1.5 (concentration of test compound that results in 150% activation of SIRT1)” value was “A (EC1.5<10 μM)” and the Emax was less than 200%.
As for `O=C(CC1CCCC1)Nc1cccc2c1C(=O)N(c1cccc(C(F)(F)F)c1)C2` [Compound 112], the “EC1.5 (concentration of test compound that results in 150% activation of SIRT1)” value was “C (EC1.5>25 μM)” and the Emax was less than 200%.
Regarding `O=C(Cc1ccc(F)cc1)Nc1cccc2c1C(=O)N(c1cccc(C(F)(F)F)c1)C2` [Compound 113], the “EC1.5 (concentration of test compound that results in 150% activation of SIRT1)” value is reported as “C (EC1.5>25 μM)” and the Emax was less than 200%.
As for `Cc1ccccc1N1Cc2cccc(NC(=O)Cc3cccnc3)c2C1=O` [Compound 114], the “EC1.5 (concentration of test compound that results in 150% activation of SIRT1)” value was “C (EC1.5>25 μM)” and the Emax was less than 200%.
As for `Cc1cccc(N2Cc3cccc(NC(=O)Cc4cccnc4)c3C2=O)c1` [Compound 115], the “EC1.5 (concentration of test compound that results in 150% activation of SIRT1)” value is “C (EC1.5>25 μM)” and the Emax was less than 200%.
For the molecule `COc1cccc(N2Cc3cccc(NC(=O)Cc4cccnc4)c3C2=O)c1` [Compound 116], the “EC1.5 (concentration of test compound that results in 150% activation of SIRT1)” value is on record as “C (EC1.5>25 μM)” and the Emax was less than 200%.
`Cc1ccc(N2Cc3cccc(NC(=O)Cc4cccnc4)c3C2=O)cc1` [Compound 117]: the “EC1.5 (concentration of test compound that results in 150% activation of SIRT1)” value is recorded as “C (EC1.5>25 μM)” and the Emax was less than 200%.
In the case of `COc1ccc(N2Cc3cccc(NC(=O)Cc4cccnc4)c3C2=O)cc1` [Compound 118], the “EC1.5 (concentration of test compound that results in 150% activation of SIRT1)” value is “C (EC1.5>25 μM)” and the Emax is less than 200%.
Take `COc1ccccc1N1Cc2cccc(NC(=O)Cc3cccnc3)c2C1=O` [Compound 119]: the “EC1.5 (concentration of test compound that results in 150% activation of SIRT1)” value is “C (EC1.5>25 μM)” and the Emax was less than 200%.
Turning to `O=C(Nc1cccc2c1C(=O)N(c1cccc(C(F)(F)F)c1)C2)c1ccccn1` [Compound 120], the “EC1.5 (concentration of test compound that results in 150% activation of SIRT1)” value is recorded as “C (EC1.5>25 μM)” and the Emax is less than 200%.
Consider `O=C(Nc1cccc2c1C(=O)N(c1cccc(C(F)(F)F)c1)C2)c1cccnc1` [Compound 121], for which the “EC1.5 (concentration of test compound that results in 150% activation of SIRT1)” value is “C (EC1.5>25 μM)” and the Emax was less than 200%.
Turning to `O=C(Nc1cccc2c1C(=O)N(c1cccc(C(F)(F)F)c1)C2)c1ncccn1` [Compound 122], the “EC1.5 (concentration of test compound that results in 150% activation of SIRT1)” value is reported as “A (EC1.5<10 μM)” and the Emax is less than 200%.
Consider `O=C(Nc1cccc2c1C(=O)N(c1cccc(C(F)(F)F)c1)C2)c1ccncc1` [Compound 123], for which the “EC1.5 (concentration of test compound that results in 150% activation of SIRT1)” value is “B (EC1-5 10-25 μM)” and the Emax was less than 200%.
The matching figures for `O=C(Nc1cccc2c1C(=O)N(c1cccc(C(F)(F)F)c1)C2)c1cscn1` [Compound 124]: “C (EC1.5>25 μM)” and less than 200%.
As to `O=C(Nc1cccc2c1C(=O)N(c1cccc(C(F)(F)F)c1)C2)c1ccc(CN2CCCC2)cc1` [Compound 125], the “EC1.5 (concentration of test compound that results in 150% activation of SIRT1)” value is “A (EC1.5<10 μM)” and the Emax was less than 200%.
`O=C(Nc1cccc2c1C(=O)N(c1cccc(C(F)(F)F)c1)C2)c1cncnc1` [Compound 126]: the “EC1.5 (concentration of test compound that results in 150% activation of SIRT1)” value is on record as “C (EC1.5>25 μM)” and the Emax was less than 200%.
For the molecule `O=C(Nc1cccc2c1C(=O)N(c1cccc(C(F)(F)F)c1)C2)c1ccncn1` [Compound 127], the “EC1.5 (concentration of test compound that results in 150% activation of SIRT1)” value is listed as “C (EC1.5>25 μM)” and the Emax is less than 200%.
